Literature values, collected in US5691323A, “Muscarine antagonists” (Merck & Co., Inc., priority 1995, dated 1997).

Key:
[1] = system: smooth muscle (ordinarily called M3 type); details: background
[2] = background statement
[3] = system: axial elongation; details: background
[4] = system: pupil; details: background

Structure (SMILES) | Selectivity for smooth muscle (M3 type) receptors [1] | Sensitization assay result [2] | Effect on axial elongation / enlargement of the eye [3] | Pupil dilation (mydriasis) [4]
C[N+]1(C)CCC(OC(=O)C(c2ccccc2)c2ccccc2)CC1 [Example 4-DAMP, 4-diphenylacetoxy-N-methylpiperadine methiodide] | relatively selective antagonist for smooth muscle | – | – | –
CN1CCN(CC(=O)N2c3ccccc3C(=O)Nc3cccnc32)CC1 [Pirenzepine] | – | positive | inhibits axial elongation | far less effective at pupil dilation than atropine
CN1CCc2cccc3c2[C@H]1Cc1ccc(O)c(O)c1-3 [apomorphine] | – | – | inhibit or actually prevent the axial enlargement of the eye | –
CN1[C@@H]2CC[C@H]1C[C@@H](OC(=O)C(CO)c1ccccc1)C2 (stereo partly shown) [atropine] | – | positive | – | causes mydriasis
